Test: in vitro
Type: cell-based
Conditions: human, arpe-19 cells, EC50 (cytotoxicity)
Procedure: The liposomal complexes were prepared as follows. Cycloretinal (10 mg), β-Ionone (20 mg), and 2,4-Dimethylbenzaldehyde (20 mg) were dissolved separately in ethanol (1 mL). Glyoxal (5.80 mg), methylglyoxal (7.21 mg), and β-cyclocitral (15.2 mg) were dissolved separately in chloroform (1 mL). A liposome solution of cholesterol (112 mg), Tween 80 (504 mg), and L-α-phosphatidylcholine (730 mg) were dissolved in 16 mL of chloroform. Liposome solution (2 mL) was added to each of the compounds. The solvents were removed under vacuum and charged with nitrogen. Each of the flasks were then mixed with 5 mL of water and stirred at 60° C. for 1 h. Each solution was placed on ice and sonicated with a probe sonicator (15 seconds on/15 seconds off) for 5 min. The solutions were centrifuged at 11,000×g for 30 min and filtered through a 0.2 μm filter. Each sample (10 μL) was added to 1 mL ethanol and measured by absorption via UV-Vis spectroscopy. […]
Following 24 hour incubation with the liposomal complexes, light induced cell damage was measured by exposing cells to 10 min of irradiation (70 W lamp) through a 430 nm bandpass filter (Thor labs, 430±2 nm). […]
Cell viability was assessed with the MTT cell proliferation assay. […] The absorbance was subsequently evaluated at 570 nm utilizing a microplate reader (quant absorbance plate reader, BioTek Instruments Inc.) […]

CC(C=CC1=C(C)CCCC1(C)C)=CC=CC1=CC=C(C=O)C(C)(C=CC=C(C)C=CC2=C(C)CCCC2(C)C)C1 (stereo not shown) [cycloretinal]
CC50 at 24 h: 93 ± 6.1 µM

— patent US20260130973A1, “COMPOSITIONS AND METHODS FOR DEGRADATION OF LIPOFUSCIN CYCLORETINAL BY MSP1” (THE TEXAS A&M UNIVERSITY SYSTEM, priority 2022, published 2026)
